Source: patent US10759777B2, “Carbazole-containing amides, carbamates, and ureas as cryptochrome modulators” (Synchronicity Pharma, Inc., priority 2014, dated 2020)

Assays:
Format in all cases: in vivo
[1] = tested on: db/db mouse model of type II diabetes; experiment: Increasing dosages of Compound 72 over 7 days in db/db mice
From the text: (§1) Significance was accepted when p<0.05.

C57/Bl6J DIO mice [2] = experiment: Compound 72 in diet-induced obesity (DIO) mouse model; conditions: 100 mg/kg PO QD 7 days
From the text: (§2) Male C57/Bl6J DIO mice were obtained from The Jackson Laboratory (Sacramento, Calif.). […] Animals were accustomed to these conditions for at least 2 weeks before experimentation and used at approximately 24 weeks of age.
as §1

[3] = Pharmacokinetic analysis in ICR mice; conditions: mouse, 50 mg/kg P.O.
Procedure: Male ICR mice (weighing 30-40 g, Charles River Laboratories) were used for the experiment with n=3 mice for each experimental group (27 mice total for the study). […] Blood and liver tissue were collected at the following time points after administration: 15, 30, 60, 90 minutes, 3, 6, 12 and 24 hours. A control group of animals (TO) was also sampled. Animals were euthanized with C02 and the blood collected from the heart using cardiac puncture, transferred to an EDTA tube, and then centrifuged at 5400 rpm for 5 minutes at 4° C. The resultant plasma was frozen using dry ice and then stored at −80° C. until ready for assay. Liver tissue was removed from each animal, 0.5 g was collected in an eppendorff, frozen and submitted for pharmacokinetic measurement. […] Raw data was analyzed using WinNonLin for PK parameters (Cmax, Tmax, elimination t^1/2, MRT (mean residence time), AUC (area under the curve)−(0-last and % extrapolated).

[4] = Pharmacokinetic analysis in SD rats; conditions: plasma; rat; 50 mg/kg P.O.
Procedure: Male SD rats (weighing 250-300 g, Charles River Laboratories) were used for the experiment with n=4 rats for each experimental group. […] Blood was collected at the following time points after administration: 15, 30, 60, 90 minutes, 3, 6, 12 and 24 hours. A pre-dose sample was also collected. Animals were cannulated by technical staff at Charles River, prior to delivery at Reset. Whole blood (0.3 ml) was collected from a cannula in the right common jugular vein at each time-point. The whole blood was transferred to an EDTA tube, and then centrifuged at 5400 rpm for 5 minutes at 4° C. The resultant plasma was frozen using dry ice and then stored at −80° C. until ready for assay. 0.9% Sodium Chloride (0.3 ml) was administered for fluid replenishment after each blood draw. 0.1 ml of Sodium Heparin (500 IU/ml) was used as a lock solution after the 12 hr time-point. Samples were assayed as described above.

C57/Bl6J DIO mice [5] = experiment: Increasing dosages of Compound 72 in diet-induced obesity (DIO) mouse model; conditions: 10, 30, 100 mg/kg PO QD 7 days
From the text: as §2, §1
Male C57/Bl6J DIO mice were obtained from The Jackson Laboratory (Sacramento, Calif.). […] Animals were accustomed to these conditions for at least 2 weeks before experimentation and used at approximately 26 weeks of age.

% AUC extrapolated ([3]; liver): 0.85%
Tmax (hr) ([3]; liver): 0.25 − hr
Tmax (hr) ([3]; plasma): 0.25 − hr
% AUC extrapolated [4]: 3.3%
SMILES: O=C1NCCN1CC(O)Cn1c2ccc(F)cc2c2cc(F)ccc21 (stereo not drawn) [Compound 72, 1-(3-(3,6-difluoro-9H-carbazol-9-yl)-2-hydroxypropyl)imidazolidin-2-one]
reduction of HOMA-IR compared to vehicle ([1]; 100 mg/kg PO QD 7 days): 34%
OGTT glucose excursion ([1]; 10, 50, 100 mg/kg PO QD 7 days): dose dependent effect on glucose excursion
OGTT glucose course (C57/Bl6J DIO mice [2]): much lower than the vehicle control group
glucose AUC from OGTT (C57/Bl6J DIO mice [2]): 17055+/−769.1 units
OGTT glucose excursion following a glucose load (C57/Bl6J DIO mice [5]): reduction in glucose excursion
